BindingDB's records for doi:10.1016/j.ejmech.2014.01.032 (University of Milan, 2014)

Experiment: Inhibition of acetylcholinesterase in rat brain homogenate after 15 mins by Ellman assay

SMILES | IC50 [µM]
C[N+](C)(CC#CCOC1=NOCC1)CCCCCCCC[N+](C)(C)CCCN1C(=O)c2ccccc2C1=O | 19.5
C[N+](C)(CC#CCOC1=NOCC1)CCCCCC[N+]1(C)CCC(N2C(=O)c3cccc4cccc(c34)C2=O)CC1 (stereo unspecified) | 22.9
C[N+](C)(CC#CCOC1=NOCC1)CCCCCCC[N+](C)(C)CCCN1C(=O)c2ccccc2C1=O | 31.6
C[N+](C)(CC#CCOC1=NOCC1)CCCCCC[N+](C)(C)CCCN1C(=O)c2cccc3cccc(c23)C1=O | 10.2
C[N+](C)(CC#CCOC1=NOCC1)CCCCCCCC[N+](C)(C)CCCN1C(=O)c2cccc3cccc(c23)C1=O | 10
CC(C)(CN1C(=O)c2cccc3cccc(c23)C1=O)C[N+](C)(C)CCCCCC[N+](C)(C)CCCN1C(=O)c2ccccc2C1=O [Naphmethonium] | 41.7
